# From paper PMC10023970 (The Journal of Biological Chemistry, 2023)
# Like-named read-outs stand apart in the source and are kept apart here.
# Assays:
# [1] = tested on: RD; experiment: cells; details: Homo sapiens, RD
# [2] = tested on: U2OS; experiment: cells; details: Homo sapiens, U2OS
# [3] = tested on: OSA; experiment: cells
# [4] = tested on: MCF 10A; experiment: cells; details: Homo sapiens, MCF-10A, read-out: EC50 for cell killing (μM) / SecinH3
# [5] = tested on: HeLa; experiment: cells; details: Homo sapiens, HeLa, read-out: EC50 for cell killing (μM) / SecinH3
# [6] = tested on: SMS-CTR; experiment: cells
# [7] = tested on: NIH3T3; experiment: cells; details: Mus musculus
# [8] = tested on: C2C12; experiment: cells; details: Mus musculus
# [9] = target: T1, ASAP1PZA (Mus musculus, UniProt Q9QWY8); experiment: thermal shift, soluble fraction by SDS-PAGE; type: binding; details: 10 μM protein, no membrane
# T1 sequence (Q9QWY8 325-724 limits assumed): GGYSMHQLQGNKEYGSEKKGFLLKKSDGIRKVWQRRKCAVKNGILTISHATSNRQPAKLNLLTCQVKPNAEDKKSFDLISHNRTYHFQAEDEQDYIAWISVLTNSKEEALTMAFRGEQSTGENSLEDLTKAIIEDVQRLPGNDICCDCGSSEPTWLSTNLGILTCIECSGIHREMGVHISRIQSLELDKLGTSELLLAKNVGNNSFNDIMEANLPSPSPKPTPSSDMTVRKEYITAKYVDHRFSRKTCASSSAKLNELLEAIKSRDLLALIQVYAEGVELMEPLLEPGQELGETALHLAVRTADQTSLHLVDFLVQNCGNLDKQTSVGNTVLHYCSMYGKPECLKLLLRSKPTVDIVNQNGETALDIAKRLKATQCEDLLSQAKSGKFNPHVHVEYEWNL
# [10] = target: T1, ASAP1PZA; experiment: GAP assay, conversion of Arf1-GTP to Arf1-GDP; type: biochemical
# [11] = target: myrArf1; details: NAV-2729 partitioned in LUVs; PBS, room temperature; not myristoylated
# [12] = target: Brag2Sec7-PH (Homo sapiens, UniProt Q6DN90); experiment: GEF assay, […]GTPgammaS binding to Arf1, filter trapping; type: biochemical
# [13] = target: ASAP1 (full-length) (Mus musculus, UniProt Q9QWY8); experiment: GAP assay, conversion of Arf1-GTP to Arf1-GDP; type: biochemical
# [14] = read-out: EC50 for cell killing (μM) / Bragsin2
# [15] = read-out: EC50 for cell killing (μM) / SecinH3
# [16] = read-out: EC50 for cell killing (μM) / NAV-2729
# Sequence of Brag2Sec7-PH (Q6DN90 512-885): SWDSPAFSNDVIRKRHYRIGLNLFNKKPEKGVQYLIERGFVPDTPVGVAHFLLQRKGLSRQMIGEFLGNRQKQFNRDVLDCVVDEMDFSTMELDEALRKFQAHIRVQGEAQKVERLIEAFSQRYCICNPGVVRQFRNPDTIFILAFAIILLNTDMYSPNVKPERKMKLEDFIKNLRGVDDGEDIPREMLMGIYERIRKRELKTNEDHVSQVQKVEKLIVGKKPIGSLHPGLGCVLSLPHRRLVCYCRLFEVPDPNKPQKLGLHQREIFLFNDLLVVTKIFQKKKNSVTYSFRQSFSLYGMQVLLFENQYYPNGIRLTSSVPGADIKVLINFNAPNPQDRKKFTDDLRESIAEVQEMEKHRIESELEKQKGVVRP
# Sequence of ASAP1 (full-length) (Q9QWY8 whole entry): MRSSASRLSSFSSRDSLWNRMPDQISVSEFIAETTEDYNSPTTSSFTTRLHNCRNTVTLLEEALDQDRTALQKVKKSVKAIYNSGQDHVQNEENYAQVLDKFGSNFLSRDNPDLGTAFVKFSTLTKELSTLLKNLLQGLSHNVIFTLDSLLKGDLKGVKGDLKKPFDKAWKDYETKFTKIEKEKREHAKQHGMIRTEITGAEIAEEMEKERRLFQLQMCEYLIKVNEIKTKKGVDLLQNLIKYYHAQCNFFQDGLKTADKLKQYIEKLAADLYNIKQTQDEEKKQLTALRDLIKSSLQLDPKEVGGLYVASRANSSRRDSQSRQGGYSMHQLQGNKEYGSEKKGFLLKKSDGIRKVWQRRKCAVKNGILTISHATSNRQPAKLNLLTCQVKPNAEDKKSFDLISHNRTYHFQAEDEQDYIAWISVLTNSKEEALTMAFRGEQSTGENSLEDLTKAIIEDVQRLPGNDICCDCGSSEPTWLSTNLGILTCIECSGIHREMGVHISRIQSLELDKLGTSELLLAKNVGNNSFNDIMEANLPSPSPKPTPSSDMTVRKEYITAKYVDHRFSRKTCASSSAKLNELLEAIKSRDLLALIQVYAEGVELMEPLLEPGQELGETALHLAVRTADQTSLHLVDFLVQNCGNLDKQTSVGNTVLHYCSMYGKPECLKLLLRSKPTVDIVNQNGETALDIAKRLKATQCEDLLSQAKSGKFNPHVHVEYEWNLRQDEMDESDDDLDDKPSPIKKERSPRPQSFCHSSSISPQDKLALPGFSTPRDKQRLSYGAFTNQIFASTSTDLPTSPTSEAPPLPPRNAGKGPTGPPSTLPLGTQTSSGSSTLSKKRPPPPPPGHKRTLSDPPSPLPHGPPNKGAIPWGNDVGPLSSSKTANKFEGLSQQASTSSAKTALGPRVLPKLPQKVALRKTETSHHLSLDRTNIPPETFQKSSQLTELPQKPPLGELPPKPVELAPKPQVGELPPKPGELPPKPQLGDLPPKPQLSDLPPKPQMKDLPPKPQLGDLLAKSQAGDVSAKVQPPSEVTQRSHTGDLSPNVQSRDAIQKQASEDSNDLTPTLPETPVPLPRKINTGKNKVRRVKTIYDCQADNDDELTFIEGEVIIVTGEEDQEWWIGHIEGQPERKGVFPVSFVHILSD
smiles,measurement,setting,value
C[C@H]1CCC/C=C/[C@@H]2C[C@H](O)C[C@H]2[C@H](O)/C=C/C(=O)O1 [Brefeldin A],EC50,[1]; read-out: EC50 for cell killing (μM) / Brefeldin A,0.006 ± 0.002 µM
COc1ccc2oc(C(F)(F)F)cc(=O)c2c1[N+](=O)[O-] [Bragsin2],EC50,[2]; [14],> 50 µM
same,EC50,[3]; [14],> 50 µM
COc1nc(-c2ccc3c(c2)OCO3)n(-c2ccc(NC(=O)CSc3ccccc3)cc2)n1 [SecinH3],EC50,[4],> 50 µM
same,EC50,[1]; [15],> 50 µM
same,EC50,[5],> 50 µM
same,EC50,[2]; [15],> 50 µM
same,EC50,[3]; [15],> 50 µM
same,EC50,[6]; [15],> 50 µM
same,EC50,"[7]; NIH3T3, read-out: EC50 for cell killing (μM) / SecinH3",> 50 µM
same,EC50,"[8]; C2C12, read-out: EC50 for cell killing (μM) / SecinH3",> 50 µM
CCCCCCCC(=O)OC[C@H](COP(=O)(O)O[C@@H]1[C@H](O)[C@H](O)[C@@H](OP(=O)(O)O)[C@H](OP(=O)(O)O)[C@H]1O)OC(=O)CCCCCCC [diC8-PIP2],thermal shift at 200 μM,[9],~ 6 degree
O=c1cc(-c2ccc([N+](=O)[O-])cc2)[nH]c2c(-c3ccc(Cl)cc3)c(Cc3ccccc3)nn12 [NAV-2729],IC50,[10],4.6 ± 0.9 µM
same,Kd,[11],> 50 µM
same,EC50,[1]; [16],8 µM
same,EC50,[6]; [16],11 µM
same,EC50,"[7]; NIH3T3, read-out: EC50 for cell killing (μM) / NAV-2729",11 µM
same,EC50,"[8]; C2C12, read-out: EC50 for cell killing (μM) / NAV-2729",11 µM
same,IC50,[12],7.1 ± 2.5 µM
same,IC50,[13],12.2 ± 1.4 µM
